Assay results reported in publication doi:10.1101/2025.05.08.652848v1 (biorxiv, 2025).

Tests used:
Assay type in all cases: binding
[1] = target: T1, RXRA:PPARG LBD heterodimer (Homo sapiens, UniProt P37231); experiment: TR-FRET MED1 LxxLL peptide blockade
T1 sequence (P37231 231-505): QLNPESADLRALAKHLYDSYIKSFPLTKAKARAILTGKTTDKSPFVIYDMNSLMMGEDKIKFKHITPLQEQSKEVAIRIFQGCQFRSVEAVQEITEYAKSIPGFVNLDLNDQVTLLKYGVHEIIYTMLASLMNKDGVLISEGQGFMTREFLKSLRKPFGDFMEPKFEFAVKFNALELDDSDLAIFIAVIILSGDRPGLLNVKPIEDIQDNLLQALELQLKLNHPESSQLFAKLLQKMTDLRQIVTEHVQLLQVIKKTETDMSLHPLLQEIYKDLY
T1 sequence (P19793 228-462 partner): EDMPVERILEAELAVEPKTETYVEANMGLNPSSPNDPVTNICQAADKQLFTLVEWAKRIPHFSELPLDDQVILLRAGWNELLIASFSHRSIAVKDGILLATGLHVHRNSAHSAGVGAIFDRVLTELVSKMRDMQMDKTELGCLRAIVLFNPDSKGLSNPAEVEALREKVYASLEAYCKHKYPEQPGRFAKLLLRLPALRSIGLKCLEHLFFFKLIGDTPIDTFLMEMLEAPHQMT

[2] = target: T1, RXRA:PPARG LBD heterodimer; experiment: TR-FRET NCOR1 ID2 peptide recruitment
[3] = target: T2, PPARD/RXRA LBD heterodimer (Homo sapiens, UniProt Q03181); experiment: TR-FRET NCOR1 ID2 peptide recruitment
T2 sequence (Q03181 171-441 limits assumed): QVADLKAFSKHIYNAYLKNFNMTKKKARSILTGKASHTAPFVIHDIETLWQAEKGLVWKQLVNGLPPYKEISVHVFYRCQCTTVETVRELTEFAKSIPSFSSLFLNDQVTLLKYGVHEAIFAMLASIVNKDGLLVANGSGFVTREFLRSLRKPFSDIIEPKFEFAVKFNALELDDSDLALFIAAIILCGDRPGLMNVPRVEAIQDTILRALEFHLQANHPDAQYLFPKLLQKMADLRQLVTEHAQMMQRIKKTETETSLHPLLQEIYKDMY
T2 sequence (P19793 228-462 partner): T1 sequence (P19793 228-462 partner)

[4] = target: T3, PPARA/RXRA LBD heterodimer (Homo sapiens, UniProt Q07869); experiment: TR-FRET NCOR1 ID2 peptide recruitment
T3 sequence (Q07869 196-468 limits assumed): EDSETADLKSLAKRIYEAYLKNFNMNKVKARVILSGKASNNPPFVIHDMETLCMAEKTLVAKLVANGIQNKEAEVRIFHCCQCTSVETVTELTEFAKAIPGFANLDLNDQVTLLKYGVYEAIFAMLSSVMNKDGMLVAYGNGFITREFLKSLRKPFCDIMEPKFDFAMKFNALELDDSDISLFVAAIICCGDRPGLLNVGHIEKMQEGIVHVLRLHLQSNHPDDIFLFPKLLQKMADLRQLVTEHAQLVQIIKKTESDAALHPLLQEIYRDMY
T3 sequence (P19793 228-462 partner): T1 sequence (P19793 228-462 partner)

IC50 [1] | EC50 [2] | EC50 [3] | EC50 [4] | Compound
740 ± 160 nM | 690 ± 70 nM | – | – | N#Cc1ccc(Cl)c(-c2cc(=O)c3c(F)cc(F)cc3[nH]2)c1 [FTX-6746, 4-Chloro-3-(5,7-difluoro-4-oxo-1,4-dihydroquinolin-2-yl)benzonitrile]
– | 70 ± 8 nM | – | – | N#Cc1ccc(Br)c(-c2cc(=O)c3c(F)cc(F)cc3[nH]2)c1 [FTX-6713, 4-bromo-3-(5,7-difluoro-4-oxo-1,4-dihydroquinolin-2-yl)benzonitrile]
97 ± 38 nM | – | – | – | O=C(Nc1ccccc1)c1cc([N+](=O)[O-])ccc1Cl [GW9662]

Further lines, the molecule ahead of its results:

Compound | IC50 [1] | EC50 [2] | EC50 [3] | EC50 [4]
N#Cc1ccc(F)c(-c2cc(=O)c3c(F)cc(F)cc3[nH]2)c1 [FTX-6822, 3-(5,7-difluoro-4-oxo-1,4-dihydro-2-quinolyl)-4-fluorobenzonitrile] | – | 5000 nM | – | –
CS(=O)(=O)c1ccc(C#N)cc1-c1cc(=O)c2c(F)cc(F)cc2[nH]1 [FX-909, 3-(5,7-difluoro-4-oxo-1,4-dihydroquinolin-2-yl)-4-(methylsulfonyl)benzonitrile] | – | 200 ± 30 nM | > 100000 nM | > 100000 nM
